Earlier results on two compounds are cited in patent US20110076334A1, “METHODS AND COMPOSITIONS FOR TREATMENT OF RAYNAUD'S PHENOMENON” (priority 2009, published 2011).

For series [1] the following is noted: in vivo.
The conditions of series [2]: ultra-short acting calcium channel blocker; marketed injectable emulsion.
The conditions of series [3]: clevidipine.

Read-outs that look alike come from different tables or passages of the source.

As to “(±)-2-(benzyl-methyl amino) ethyl methyl 1,4-dihydro-2,6-dimethyl-4-(m-nitrophenyl)-3,5-pyridinedicarboxylate monohydrochloride [nicardipine]”, in series [1], the “half-life (second phase)” value is given as “about 44.8 minutes”, the initial phase half-life result is listed as “approximately 2.7 minutes” and the terminal half-life result is “approximately 14.4 hours”.
`CCCC(=O)OCOC(=O)C1=C(C)NC(C)=C(C(=O)OC)[C@H]1c1cccc(Cl)c1Cl` (stereo in doubt) [Clevidipine, butyroxymethyl methyl 4-(2′,3′-dichlorophenyl)-2,6-dimethyl-1,4-dihydropyridine-3,5-dicarboxylate]: the onset of action in series [2] is 1 to 2 min. Also, in series [3], the initial phase half-life entry is given as “approximately 1 minute” and the terminal half-life result is recorded as “approximately 15 minutes”.
